The source of these data is patent publication US8569045B2, “Water toxicity detecting apparatus and method using sulfur particles” (University-Industry Cooperation Foundation, Kangwon …, priority 2007, dated 2013).

This data set concerns sulfur-oxidizing microbes. The experiment in a line: Water toxicity detection with sulfur particles: electrical conductivity difference between inflow and outflow water, continuous reaction container. The class given is cell-based, Thiobacillus. To be noted: 30 ppm test substance in the sample; EBCT 17 minute; 30° C.; ratio 0~1, about 1 = no toxicity, about 0 = high toxicity; 0.3 corresponds to issuing alarm. As to the method: When the microbes attached around the sulfur particles are grown in the reaction container 130 of which conditions such as temperature is constant, the sulfur is oxidized at a constant speed. The following formula expresses a reaction of generation of sulfate ions and hydrogen ions in the processes. S+H2O+1.5O2−>SO4^2−+2H^+ΔG°′=−587.1 kJ/reaction
Referring to the above formula, the sulfur particles react with the microbes, the inflow water, and the oxygen in the reaction container 130 to generate a predetermined amount of sulfate ions. In case of non-toxic outflow water, the amount of sulfate ions thereof is increased by a predetermined amount in comparison with the inflow water. Since a degree of alkali in a river water is generally low, pH of the outflow water is decreased in comparison with the inflow water.
However, in case of the inflow water containing toxic substances, a degree of activation of the microbes attached around the sulfur particles is lowered, so that the sulfur particles can not be oxidized. […]
The reaction container is filled with a 30 mL of sulfur particles. […] While an empty bed contact time (EBCT) of the inflow water is changed among 7.1, 8.3, 10.0, 12.5, and 16.7 minutes, the pH and electrical conductivity of the inflow water and the outflow water are measured. The EBCT is calculated by dividing a volume (30 mL) of the sulfur particles with a flow rate. […]

As to hexavalent chrome, the ECDifference ratio is listed as 0.3.
